# Source: patent US20230250096A1, “SUBSTITUTED PHENYL-1H-PYRROLO[2,3-c] PYRIDINE DERIVATIVES” (Janssen Pharmaceutica NV, priority 2021, published 2023)
# How the values were obtained:
# [1] = molecular target: T1, menin/MLL (terbium chelate-labeled menin, FITC-MBM1 peptide) (Homo sapiens, UniProt O00255, T541A); assay: Menin/MLL homogenous time-resolved fluorescence (HTRF) assay; assay type: binding; conditions: 30 min incubation
# T1 construct: Menin (a.a 1-610-6xhis tag, 2.3 mg/mL in 20 mM Hepes)
# T1 sequence (O00255 with tags, fused parts or gaps T541A): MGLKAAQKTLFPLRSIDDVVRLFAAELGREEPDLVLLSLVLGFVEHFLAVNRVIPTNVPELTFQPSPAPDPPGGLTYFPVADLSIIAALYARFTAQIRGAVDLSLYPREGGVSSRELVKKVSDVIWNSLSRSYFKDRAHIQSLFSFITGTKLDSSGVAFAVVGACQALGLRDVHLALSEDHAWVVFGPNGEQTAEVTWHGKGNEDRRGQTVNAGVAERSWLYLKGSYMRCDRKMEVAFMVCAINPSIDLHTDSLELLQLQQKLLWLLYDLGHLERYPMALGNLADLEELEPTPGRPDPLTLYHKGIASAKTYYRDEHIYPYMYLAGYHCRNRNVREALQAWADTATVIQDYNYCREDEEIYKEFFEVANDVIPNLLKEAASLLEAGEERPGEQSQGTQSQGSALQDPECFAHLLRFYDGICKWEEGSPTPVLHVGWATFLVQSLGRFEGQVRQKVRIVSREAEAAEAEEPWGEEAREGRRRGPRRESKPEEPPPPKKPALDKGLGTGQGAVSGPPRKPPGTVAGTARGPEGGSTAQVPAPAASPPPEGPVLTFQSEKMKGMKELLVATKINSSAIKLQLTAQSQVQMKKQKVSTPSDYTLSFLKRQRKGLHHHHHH
# Outline: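 Terbium-labeled menin (a.a. 1-610, His-tagged; […]) pre-incubated 30 min with compound, then 75 nM FITC-MBM1 peptide added for 15 min at ambient temperature in Tris pH 7.5 buffer, 0.5% DMSO. HTRF 520/490 nm ratio read; IC50 from 11-point four-fold titrations, typically from 10 μM.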
# MEIS1 mRNA expression = MEIS1 mRNA expression assay (Quantigene Singleplex) in MOLM14 cells; assay type: cell-based, human; conditions: 48 hours incubation
# Outline: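 MOLM14 cells, 3,750/well, exposed to increasing compound concentrations for 48 h. MEIS1 mRNA measured by QuantiGene Singleplex branched-DNA hybridization (lysis 45 min, hybridization 18–22 h, both 55 °C), normalized to RPL28. IC50 fitted to background-corrected fold change versus DMSO.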
Compound,IC50 [1],"IC50 (MEIS1 mRNA expression; Homo sapiens, MOLM-14, 48 h)",IC50 (MEIS1 mRNA expression)
"Cc1cncc2c1c(C[C@H]1CCN(CC3COC3)C1)cn2-c1ccc(F)cc1C(=O)N(C)C(C)C (single isomer, unassigned) [Compound 47]",0.042 nM,55 nM,–
"Cc1cncc2c1c(CC1CCN(C[C@H]3CC[C@H](NS(C)(=O)=O)CC3)C1)cn2-c1ccc(F)cc1C(=O)N(C)C(C)C (single isomer, unassigned) [Compound 68]",0.043 nM,32 nM,–
"CC(=O)N[C@H]1CC[C@H](CN2CCC(Cc3cn(-c4ccc(F)cc4C(=O)N(C)C(C)C)c4cncc(C)c34)C2)CC1 (single isomer, unassigned) [Compound 72]",0.173 nM,182 nM,–
"CC(=O)N[C@H]1CC[C@H](CN2CC[C@H](Cc3cn(-c4ccc(F)cc4C(=O)N(C)C(C)C)c4cncc(C)c34)C2)CC1 (single isomer, unassigned) [Compound 73]",0.057 nM,101 nM,–
"CN=S(=O)(c1cc(F)ccc1-n1cc(CC2CCN(CC3CCOCC3)C2)c2c(C)cncc21)C(C)C (single isomer, unassigned) [Compound 77c]",0.546 nM,–,669 nM
"Cc1cncc2c1c(C[C@@H]1CCN(CC3CCOCC3)C1)cn2-c1ccc(F)cc1[S@](=N)(=O)C(C)C (single isomer, unassigned) [Compound 78a]",1.22 nM,~690 nM,–
"Cc1cncc2c1c(C[C@@H]1CCN(CC3CCOCC3)C1)cn2-c1ccc(F)cc1[S@](=N)(=O)C(C)C (single isomer, unassigned) [Compound 78b]",0.552 nM,–,361 nM
"Cc1cncc2c1c(C[C@H]1CCN(CC3CCOCC3)C1)cn2-c1ccc(F)cc1[S@@](=N)(=O)C(C)C (single isomer, unassigned) [Compound 78d]",0.875 nM,538 nM,–
"Cc1cncc2c1c(CC1CCN(CC3CCN(C(=O)CCO)CC3)C1)cn2-c1ccc(F)cc1C(=O)N(C)C(C)C (single isomer, unassigned) [Compound 82]",~0.035 nM,11 nM,–
"Cc1cncc2c1c(CC1CCN(CC3CCN(C(=O)CO)CC3)C1)cn2-c1ccc(F)cc1C(=O)N(C)C(C)C (single isomer, unassigned) [Compound 87]",0.042 nM,27 nM,–
"CC(=O)N1CCC[C@H](CN2CC(Cc3cn(-c4ccc(F)cc4C(=O)N(C)C(C)C)c4cncc(C)c34)C2)C1 (single isomer, unassigned) [Compound 90a]",0.391 nM,~127 nM,–
"CC(=O)N1CCC[C@@H](CN2CC(Cc3cn(-c4ccc(F)cc4C(=O)N(C)C(C)C)c4cncc(C)c34)C2)C1 (single isomer, unassigned) [Compound 90b]",0.263 nM,103 nM,–
"CC(=O)N1CC[C@@H](CN2CCC(Cc3cn(-c4ccc(F)cc4C(=O)N(C)C(C)C)c4cncc(C)c34)C2)C1 (single isomer, unassigned) [Compound 99]",0.217 nM,~792 nM,–
"CC(=O)N1CC[C@H](CN2CCC(Cc3cn(-c4ccc(F)cc4C(=O)N(C)C(C)C)c4cncc(C)c34)C2)C1 (single isomer, unassigned) [Compound 100]",0.165 nM,434 nM,–
"CC(=O)NC(C)CN1CCC(Cc2cn(-c3ccc(F)cc3C(=O)N(C)C(C)C)c3cncc(C)c23)C1 (single isomer, unassigned) [Compound 103]",3.27 nM,–,~5120 nM
"Cc1cncc2c1c(CC1CCN(CC3CCN(C(=O)CC4CS(=O)(=O)C4)CC3)C1)cn2-c1ccc(F)cc1C(=O)N(C)C(C)C (single isomer, unassigned) [Compound 106]",0.039 nM,104 nM,–
"Cc1cncc2c1c(CC1CCN(CC3CCN(C(=O)CC4CS(=O)(=O)C4)CC3)C1)cn2-c1ccc(F)cc1C(=O)N(C)C(C)C (single isomer, unassigned) [Compound 108]",0.161 nM,–,153 nM
"CC(=O)NC(C)CN1CCC(Cc2cn(-c3ccc(F)cc3C(=O)N(C)C(C)C)c3cncc(C)c23)C1 (single isomer, unassigned) [Compound 119a]",0.906 nM,–,> 1000 nM
